Data: US20040157821A1, “Sulfate of cephem compound” (priority 2001, published 2004)
Counter-ions that a name gives are not always drawn.

Experiments:
[1] = acceleration stability test at 40° C. of crystals filled into vials (residue rate, appearance); format: physicochemical; conditions: for appearance (of powder) / residue rate (%): 40° C., vial
Method: (§1) The crystals obtained in the above examples were filled into vials and the residue rate thereof was examined through the acceleration stability test at 40° C. Further, the turbidity of an aqueous solution containing the crystal was determined.
(§2) The monosulfate crystal of compound (I) obtained in Example 9 was filled into vials and the residue rate thereof was examined through the acceleration stability test at 40° C. Further, the turbidity was determined.
As a reference compound, used was a lyophilization product of monohydrochloride of compound (I) (non-crystal, KF value: 1.7%, 0.6 H2O) obtained according to the method of Example 6-2 of WO 00/32606.
(§3) The crystals obtained in Example 10 were filled into vials and the residue rate thereof was examined through the acceleration stability test at 40° C. Further, the turbidity of solutions was determined.

[2] = turbidity / appearance of an aqueous solution containing the crystal; format: physicochemical; conditions: for turbidity Abs(600 nm): aqueous solution, absorbance 600 nm
Method: as §1, §2, §3

Row | SMILES | appearance (of powder) ([1]; 1 month) | residue rate (%) ([1]; 1 month) | appearance (of powder) ([1]; initial) | residue rate (%) ([1]; initial) | turbidity Abs(600 nm) ([2]; after 1 month at 40° C.) | turbidity Abs(600 nm) ([2]; initial) | appearance (of powder) ([1]; 2 month) | residue rate (%) ([1]; 2 month) | appearance of solution ([2]; after 1 month at 40° C.) | appearance of solution ([2]; after 2 month at 40° C.) | turbidity Abs(600 nm) ([2]; after 2 month at 40° C.) | appearance of solution ([2]; initial) | stability (in words) ([1]; acceleration stability test at 40° C.) | turbidity upon being dissolved into water (in words) ([2]; after storage at 40° C.)
1 | CCO/N=C(\C(=O)N[C@@H]1C(=O)N2C(C(=O)[O-])=C(C[n+]3cccc4c3NCN4CCCNC)CS[C@H]12)c1nsc(N)n1 [Example 6(1)] | white | 99.6 | white | 100.0 | 0.011 | 0.000 | – | – | – | – | – | – | – | –
2 | CCO/N=C(\C(=O)N[C@@H]1C(=O)N2C(C(=O)[O-])=C(C[n+]3cccc4c3ncn4CCCNC)CS[C@H]12)c1nsc(N)n1 [hydrochloride, reference compound] | pale | 94.8 | pale | 100.0 | 0.565 | 0.001 | pale | 92.9 | Yellow | Yellow | 1.338 | pale | – | –
3 | CCO/N=C(\C(=O)N[C@@H]1C(=O)N2C(C(=O)[O-])=C(C[n+]3cccc4c3NCN4CCCNC)CS[C@H]12)c1nsc(N)n1 [Example 10] | – | 98.5 | white powder | 100.0 | 0.002 | 0.002 | – | – | – | – | – | – | high stability for a long period | turbidity was hardly observed
4 | CCO/N=C(\C(=O)N[C@@H]1C(=O)N2C(C(=O)[O-])=C(C[n+]3cccc4c3NCN4CCCNC)CS[C@H]12)c1nsc(N)n1 [Example 6(2)] | white | 99.0 | white | 100.0 | 0.007 | 0.006 | – | – | – | – | – | – | – | –
